What follows are molecules tested against human NaV subtype, like NaV 1.7 (Homo sapiens, UniProt Q15858) (assay: E-VIPR optical membrane potential assay with electrical stimulation). Settings: active against one or more sodium channels; assay and NaV subtype not specified for Table 3; read-out: IC50 Binned Activity Data.
Type: cell-based
Summary of the method: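 HEK cells expressing human NaV (e.g. NaV1.7), loaded with CC2-DMPE/DiSBAC6(3) FRET dyes, compounds 20–35 min at room temperature, 0.625% DMSO, KCl 4.5–20 mM. Electrical stimulation ~9 s at 400 Hz scan; background-subtracted 460/580 nm emission ratios normalized; tetracaine 125 µM as positive control.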

human NaV subtype, like NaV 1.7, sequence (Q15858 whole entry): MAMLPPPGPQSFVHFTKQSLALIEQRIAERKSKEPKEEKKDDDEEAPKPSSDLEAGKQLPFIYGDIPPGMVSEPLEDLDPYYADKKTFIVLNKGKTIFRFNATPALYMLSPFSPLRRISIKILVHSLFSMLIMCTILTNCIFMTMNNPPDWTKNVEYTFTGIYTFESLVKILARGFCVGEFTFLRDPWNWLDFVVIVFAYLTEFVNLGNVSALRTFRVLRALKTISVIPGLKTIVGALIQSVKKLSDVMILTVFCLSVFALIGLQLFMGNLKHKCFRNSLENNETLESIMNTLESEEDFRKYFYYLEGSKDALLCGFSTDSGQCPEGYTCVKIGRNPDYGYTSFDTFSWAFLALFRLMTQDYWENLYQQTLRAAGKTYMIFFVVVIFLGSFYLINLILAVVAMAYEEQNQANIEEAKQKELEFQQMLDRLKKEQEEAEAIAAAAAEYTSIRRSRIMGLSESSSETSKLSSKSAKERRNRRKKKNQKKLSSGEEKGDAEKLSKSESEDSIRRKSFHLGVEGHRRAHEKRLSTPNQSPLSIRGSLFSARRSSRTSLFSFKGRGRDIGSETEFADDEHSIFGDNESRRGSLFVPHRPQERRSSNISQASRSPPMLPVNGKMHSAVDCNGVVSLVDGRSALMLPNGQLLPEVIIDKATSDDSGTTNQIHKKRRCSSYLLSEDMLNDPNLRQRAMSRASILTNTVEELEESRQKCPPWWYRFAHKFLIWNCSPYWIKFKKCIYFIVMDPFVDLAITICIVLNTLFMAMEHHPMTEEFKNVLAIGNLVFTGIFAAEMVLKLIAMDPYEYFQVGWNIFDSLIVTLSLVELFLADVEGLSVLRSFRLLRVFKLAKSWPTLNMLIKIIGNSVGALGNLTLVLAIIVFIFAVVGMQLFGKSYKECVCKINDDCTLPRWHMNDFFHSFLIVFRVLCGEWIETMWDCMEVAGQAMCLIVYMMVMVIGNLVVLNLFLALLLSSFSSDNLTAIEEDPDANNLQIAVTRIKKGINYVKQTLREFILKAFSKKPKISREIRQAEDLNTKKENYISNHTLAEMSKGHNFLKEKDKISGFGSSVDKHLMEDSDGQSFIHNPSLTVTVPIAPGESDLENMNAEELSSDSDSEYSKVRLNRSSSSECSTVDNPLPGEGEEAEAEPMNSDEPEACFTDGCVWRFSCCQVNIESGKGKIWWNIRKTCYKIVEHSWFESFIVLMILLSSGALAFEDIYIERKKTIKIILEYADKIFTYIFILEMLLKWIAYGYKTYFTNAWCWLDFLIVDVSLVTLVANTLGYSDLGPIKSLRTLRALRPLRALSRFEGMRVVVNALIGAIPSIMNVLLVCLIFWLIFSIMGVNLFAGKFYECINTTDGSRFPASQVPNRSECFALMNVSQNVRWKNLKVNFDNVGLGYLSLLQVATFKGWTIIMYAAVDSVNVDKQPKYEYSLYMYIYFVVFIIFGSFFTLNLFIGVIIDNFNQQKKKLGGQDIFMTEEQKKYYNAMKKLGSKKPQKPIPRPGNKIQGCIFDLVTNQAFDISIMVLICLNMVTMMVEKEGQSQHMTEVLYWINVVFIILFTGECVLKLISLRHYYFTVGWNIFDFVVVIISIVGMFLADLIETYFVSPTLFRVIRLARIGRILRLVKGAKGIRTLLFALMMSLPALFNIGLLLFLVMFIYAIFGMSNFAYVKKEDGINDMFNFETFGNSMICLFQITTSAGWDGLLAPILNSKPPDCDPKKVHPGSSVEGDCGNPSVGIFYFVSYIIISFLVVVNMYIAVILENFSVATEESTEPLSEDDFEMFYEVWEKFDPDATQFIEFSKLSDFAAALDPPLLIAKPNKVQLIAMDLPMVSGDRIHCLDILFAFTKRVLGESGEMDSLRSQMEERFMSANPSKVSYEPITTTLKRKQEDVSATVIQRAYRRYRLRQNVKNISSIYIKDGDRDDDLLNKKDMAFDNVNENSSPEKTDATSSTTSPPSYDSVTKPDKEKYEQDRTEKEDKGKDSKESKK

Row | SMILES | IC50 [µM]
1 | COc1cc(C(=O)N2CCC3(CCc4ccccc4O3)CC2)ccc1OC(C)C [Compound 162] | 2 to 5
2 | COc1cc(O)ccc1C(=O)N1CCC2(CC1)C[C@@H](OC(C)C)c1ccccc1O2 [Compound 170] | ≤ 2
3 | COc1cc(C(=O)N2CCC3(CC2)C[C@H](OC(C)C)c2ccccc2O3)ccc1OC(C)C [Compound 171] | ≤ 2
4 | COc1cc(C(=O)N2CCC3(CC2)CC(OC2CCC2)c2ccccc2O3)ccc1OC(C)C (stereo not shown) [Compound 172] | ≤ 2
5 | CC(C)Oc1ccc(C(=O)N2CCC3(CC2)C[C@@H](OC(C)C)c2cc(F)ccc2O3)cc1CN(C)C [Compound 173] | ≤ 2
6 | CC(C)O[C@@H]1CC2(CCN(C(=O)c3ccc(NC(C)(C)C)cn3)CC2)Oc2ccc(F)cc21 [Compound 174] | ≤ 2
7 | CC(C)O[C@@H]1CC2(CCN(C(=O)c3ccc(S(=O)(=O)C(C)C)cn3)CC2)Oc2ccc(F)cc21 [Compound 175] | ≤ 2
8 | CC(C)O[C@@H]1CC2(CCN(C(=O)c3ccc(N4CC(C)OC(C)C4)cn3)CC2)Oc2ccc(F)cc21 (stereo partly shown) [Compound 176] | ≤ 2
9 | COc1cc(C(=O)N2CCC3(CC2)CC(OC(C)C)c2cccc(F)c2O3)ccc1OC(C)C (stereo not shown) [Compound 177] | ≤ 2
10 | CCCNc1ccc(C(=O)N2CCC3(CC2)C[C@@H](OC(C)C)c2cc(F)ccc2O3)nc1 [Compound 178] | ≤ 2

Results, then the molecule that gave them:

Row | IC50 [µM] | SMILES
11 | ≤ 2 | COc1cc(C(=O)N2CCC3(CC2)C[C@@H](OC(C)C)c2ccccc2O3)ccc1C(C)(C)CO [Compound 160]
12 | ≤ 2 | CC(C)O[C@@H]1CC2(CCN(C(=O)c3ccc([S+]([O-])C(C)C)cc3)CC2)Oc2ccc(F)cc21 (stereo partly shown) [Compound 161]
13 | ≤ 2 | COc1cc(C(=O)N2CCC3(CC2)CC(COC(C)C)c2ccccc2O3)ccc1C(C)(C)O (stereo not shown) [Compound 163]
14 | ≤ 2 | CC(C)Oc1ccc(C(=O)N2CCC3(CC2)C[C@@H](OC(C)C)c2cc(F)ccc2O3)cc1C#N [Compound 164]
15 | ≤ 2 | COc1cc(C(=O)N2CCC3(CC2)Oc2ccccc2CC3OC)ccc1OC(C)C (stereo not shown) [Compound 165]
16 | ≤ 2 | COc1cc(C(=O)N2CCC3(CC2)C[C@H](OC(C)C)c2ccccc2O3)ccc1C(C)(C)O [Compound 166]
17 | ≤ 2 | CC(C)Oc1ccc(C(=O)N2CCC3(CC2)C[C@H](OC(C)C)c2ccccc2O3)cc1C#N [Compound 167]
18 | ≤ 2 | COCC1CC2(CCN(C(=O)c3ccc(OC(C)C)c(OC)c3)CC2)Oc2ccccc21 (stereo not shown) [Compound 168]
19 | ≤ 2 | Cc1cc(OC(C)C)ccc1C(=O)N1CCC2(CC1)C[C@@H](OC(C)C)c1ccccc1O2 [Compound 169]

Source: patent US10385070B2, “Chroman-spirocyclic piperidine amides as modulators of ion channels” (VERTEX PHARMACEUTICALS INCORPORATED, priority 2011, dated 2019)
